# Data taken from the kinase profiling compilation of Christmann-Franck et al. (2016).
# pKd: −log10 of the molar value.
# Key:
# Test in all cases: KINOMEscan competition binding
# [1] = target: CAMKK2 (human) (UniProt Q96RR4); conditions: compound 10.0 µM
# [2] = target: MKNK2 (human) (UniProt Q9HBH9); conditions: compound 10.0 µM
# [3] = target: SRPK2 (human) (UniProt P78362); conditions: compound 10.0 µM
# [4] = target: JAK3 JH1 catalytic (human) (UniProt P52333); conditions: compound 10.0 µM
# [5] = target: NEK2 (human) (UniProt P51955); conditions: compound 10.0 µM
# [6] = target: MINK1 (human) (UniProt Q8N4C8); conditions: compound 10.0 µM
# [7] = target: MAPK8 (human) (UniProt P45983); conditions: compound 10.0 µM
# [8] = target: CLK1 (human) (UniProt P49759); conditions: for kinase still bound, per cent of control: compound 10.0 µM
# [9] = target: MAP2K4 (human) (UniProt P45985); conditions: compound 10.0 µM
# [10] = target: CSNK2A2 (human) (UniProt P19784); conditions: for kinase still bound, per cent of control: compound 10.0 µM
# [11] = target: PIM1 (human) (UniProt P11309); conditions: for kinase still bound, per cent of control: compound 10.0 µM
# [12] = system: KIT (human), P10721 [V559D/T670I]; conditions: compound 10.0 µM
# [13] = target: MAP3K5 (human) (UniProt Q99683); conditions: compound 10.0 µM
# [14] = target: TGFBR2 (human) (UniProt P37173); conditions: compound 10.0 µM
# [15] = target: RPS6KA2 KD2 (human) (UniProt Q15349); conditions: compound 10.0 µM
# [16] = target: MKNK1 (human) (UniProt Q9BUB5); conditions: compound 10.0 µM
# [17] = target: DAPK1 (human) (UniProt P53355); conditions: for kinase still bound, per cent of control: compound 10.0 µM
# [18] = target: SRPK3 (human) (UniProt Q9UPE1); conditions: compound 10.0 µM
# [19] = target: PIP5K1A (human) (UniProt Q99755); conditions: compound 10.0 µM
# [20] = target: RPS6KA5 KD2 (human) (UniProt O75582); conditions: compound 10.0 µM
# [21] = target: DAPK3 (human) (UniProt O43293); conditions: compound 10.0 µM
# [22] = target: PIP4K2B (human) (UniProt P78356); conditions: compound 10.0 µM
# [23] = target: TNIK (human) (UniProt Q9UKE5); conditions: compound 10.0 µM
# [24] = target: BMPR1B (human) (UniProt O00238); conditions: compound 10.0 µM
# [25] = target: STK33 (human) (UniProt Q9BYT3); conditions: compound 10.0 µM
# [26] = target: ACVR1 (human) (UniProt Q04771); conditions: compound 10.0 µM
# [27] = target: HIPK1 (human) (UniProt Q86Z02); conditions: compound 10.0 µM
# [28] = target: ACVR2A (human) (UniProt P27037); conditions: compound 10.0 µM
# [29] = system: KIT (human), P10721 [V559D]; conditions: compound 10.0 µM
# [30] = target: PIK3CG (human) (UniProt P48736); conditions: compound 10.0 µM
# [31] = target: PLK4 (human) (UniProt O00444); conditions: compound 10.0 µM
# [32] = target: CSNK1D (human) (UniProt P48730); conditions: compound 10.0 µM
# [33] = target: GAK (human) (UniProt O14976); conditions: compound 10.0 µM
# [34] = system: FLT3 (human), P36888 [K663Q]; conditions: compound 10.0 µM
# [35] = target: RPS6KA1 KD2 (human) (UniProt Q15418); conditions: compound 10.0 µM
# [36] = system: EIF2AK4 KD2 (human), Q9P2K8 [S808G]; conditions: compound 10.0 µM
# [37] = system: KIT (human), P10721 [V559D/V654A]; conditions: compound 10.0 µM
# [38] = target: MAP4K4 (human) (UniProt O95819); conditions: compound 10.0 µM
# [39] = target: TAOK3 (human) (UniProt Q9H2K8); conditions: compound 10.0 µM
# [40] = target: CSNK1E (human) (UniProt P49674); conditions: compound 10.0 µM
# [41] = target: PRKD1 (human) (UniProt Q15139); conditions: compound 10.0 µM
# [42] = target: RPS6KA4 KD2 (human) (UniProt O75676); conditions: compound 10.0 µM
# TGFBR2 (human), sequence (P37173 whole entry, looked up): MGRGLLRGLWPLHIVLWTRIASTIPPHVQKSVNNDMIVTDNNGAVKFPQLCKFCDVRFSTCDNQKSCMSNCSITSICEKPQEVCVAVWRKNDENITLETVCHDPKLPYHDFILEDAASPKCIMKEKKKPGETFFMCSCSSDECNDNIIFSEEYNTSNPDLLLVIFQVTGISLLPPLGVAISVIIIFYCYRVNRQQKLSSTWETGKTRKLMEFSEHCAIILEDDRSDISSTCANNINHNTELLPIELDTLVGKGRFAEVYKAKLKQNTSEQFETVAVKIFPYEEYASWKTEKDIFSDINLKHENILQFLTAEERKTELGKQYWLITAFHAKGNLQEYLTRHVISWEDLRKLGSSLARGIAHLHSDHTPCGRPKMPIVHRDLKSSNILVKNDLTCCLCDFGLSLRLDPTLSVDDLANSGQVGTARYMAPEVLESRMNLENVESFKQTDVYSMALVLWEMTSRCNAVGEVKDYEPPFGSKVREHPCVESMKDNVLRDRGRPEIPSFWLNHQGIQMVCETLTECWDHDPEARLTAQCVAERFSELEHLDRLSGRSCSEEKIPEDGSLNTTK
# TAOK3 (human), sequence (Q9H2K8 whole entry, looked up): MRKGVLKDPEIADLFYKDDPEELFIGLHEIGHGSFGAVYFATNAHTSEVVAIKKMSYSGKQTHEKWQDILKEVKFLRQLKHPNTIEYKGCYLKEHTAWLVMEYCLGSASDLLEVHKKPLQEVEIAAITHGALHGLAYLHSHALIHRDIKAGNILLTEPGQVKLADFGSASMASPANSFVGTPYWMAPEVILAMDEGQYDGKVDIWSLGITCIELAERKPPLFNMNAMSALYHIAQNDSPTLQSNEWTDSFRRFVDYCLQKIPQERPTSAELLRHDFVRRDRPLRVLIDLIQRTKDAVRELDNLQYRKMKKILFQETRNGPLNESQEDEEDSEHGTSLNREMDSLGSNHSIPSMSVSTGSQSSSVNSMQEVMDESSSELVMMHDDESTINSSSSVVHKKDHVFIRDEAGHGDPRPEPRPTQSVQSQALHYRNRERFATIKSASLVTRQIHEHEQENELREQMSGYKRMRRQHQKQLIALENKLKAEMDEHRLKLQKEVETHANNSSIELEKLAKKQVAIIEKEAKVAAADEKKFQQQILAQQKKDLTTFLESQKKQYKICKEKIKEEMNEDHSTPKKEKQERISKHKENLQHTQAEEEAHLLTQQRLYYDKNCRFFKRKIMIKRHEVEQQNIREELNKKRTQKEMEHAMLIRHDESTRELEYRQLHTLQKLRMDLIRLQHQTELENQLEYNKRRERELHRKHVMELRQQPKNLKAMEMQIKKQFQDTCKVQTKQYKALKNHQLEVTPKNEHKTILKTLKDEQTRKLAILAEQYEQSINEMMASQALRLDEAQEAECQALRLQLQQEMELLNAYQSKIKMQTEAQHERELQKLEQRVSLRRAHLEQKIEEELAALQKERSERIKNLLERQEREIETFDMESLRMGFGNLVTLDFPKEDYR
# GAK (human), sequence (O14976 whole entry, looked up): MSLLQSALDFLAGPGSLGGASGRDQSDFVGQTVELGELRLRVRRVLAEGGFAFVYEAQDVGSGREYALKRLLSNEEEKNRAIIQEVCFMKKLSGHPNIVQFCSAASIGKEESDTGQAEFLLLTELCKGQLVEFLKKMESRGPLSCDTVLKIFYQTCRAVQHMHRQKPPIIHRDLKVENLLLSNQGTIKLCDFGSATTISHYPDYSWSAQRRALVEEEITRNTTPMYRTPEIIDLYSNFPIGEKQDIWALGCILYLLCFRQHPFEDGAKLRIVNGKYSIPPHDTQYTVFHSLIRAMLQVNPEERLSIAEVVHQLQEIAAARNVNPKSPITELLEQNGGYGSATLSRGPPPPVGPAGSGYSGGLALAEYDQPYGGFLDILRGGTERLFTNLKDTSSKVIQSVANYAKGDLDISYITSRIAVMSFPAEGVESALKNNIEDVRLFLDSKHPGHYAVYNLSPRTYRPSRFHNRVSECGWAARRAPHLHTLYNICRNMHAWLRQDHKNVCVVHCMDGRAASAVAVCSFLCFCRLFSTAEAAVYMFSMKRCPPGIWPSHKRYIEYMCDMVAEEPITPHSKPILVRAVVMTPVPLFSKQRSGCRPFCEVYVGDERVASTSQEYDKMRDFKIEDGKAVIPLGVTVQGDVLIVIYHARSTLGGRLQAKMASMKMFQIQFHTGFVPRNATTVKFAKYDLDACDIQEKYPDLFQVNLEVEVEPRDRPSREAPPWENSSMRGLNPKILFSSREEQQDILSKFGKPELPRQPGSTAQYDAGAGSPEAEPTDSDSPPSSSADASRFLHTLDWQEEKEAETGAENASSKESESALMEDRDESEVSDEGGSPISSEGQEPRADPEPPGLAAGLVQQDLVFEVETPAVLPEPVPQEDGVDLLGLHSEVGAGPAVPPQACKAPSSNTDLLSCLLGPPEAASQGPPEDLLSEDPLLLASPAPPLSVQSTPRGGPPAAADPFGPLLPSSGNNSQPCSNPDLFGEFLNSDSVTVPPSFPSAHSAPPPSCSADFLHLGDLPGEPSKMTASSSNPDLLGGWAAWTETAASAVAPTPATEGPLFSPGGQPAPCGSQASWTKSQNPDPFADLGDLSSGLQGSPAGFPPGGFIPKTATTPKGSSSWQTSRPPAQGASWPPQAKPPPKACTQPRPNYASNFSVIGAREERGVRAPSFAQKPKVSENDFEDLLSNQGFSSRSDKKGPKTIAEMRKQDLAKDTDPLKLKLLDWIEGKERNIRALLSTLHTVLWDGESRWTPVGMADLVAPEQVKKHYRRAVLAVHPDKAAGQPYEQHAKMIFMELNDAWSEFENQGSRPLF
# MKNK1 (human), sequence (Q9BUB5 whole entry, looked up): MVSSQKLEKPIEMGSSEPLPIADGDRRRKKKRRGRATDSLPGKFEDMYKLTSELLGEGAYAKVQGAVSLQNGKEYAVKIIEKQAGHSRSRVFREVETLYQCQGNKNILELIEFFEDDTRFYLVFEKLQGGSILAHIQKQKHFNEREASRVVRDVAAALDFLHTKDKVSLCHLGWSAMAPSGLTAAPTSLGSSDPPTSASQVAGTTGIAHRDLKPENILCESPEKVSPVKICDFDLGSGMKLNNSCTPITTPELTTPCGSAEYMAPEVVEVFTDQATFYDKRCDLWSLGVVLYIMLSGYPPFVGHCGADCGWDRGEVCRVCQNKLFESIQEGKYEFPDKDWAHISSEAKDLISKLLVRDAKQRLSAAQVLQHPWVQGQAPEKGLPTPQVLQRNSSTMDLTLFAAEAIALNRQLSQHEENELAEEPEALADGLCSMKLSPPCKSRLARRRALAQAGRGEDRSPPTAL
# PIK3CG (human), sequence (P48736 whole entry, looked up): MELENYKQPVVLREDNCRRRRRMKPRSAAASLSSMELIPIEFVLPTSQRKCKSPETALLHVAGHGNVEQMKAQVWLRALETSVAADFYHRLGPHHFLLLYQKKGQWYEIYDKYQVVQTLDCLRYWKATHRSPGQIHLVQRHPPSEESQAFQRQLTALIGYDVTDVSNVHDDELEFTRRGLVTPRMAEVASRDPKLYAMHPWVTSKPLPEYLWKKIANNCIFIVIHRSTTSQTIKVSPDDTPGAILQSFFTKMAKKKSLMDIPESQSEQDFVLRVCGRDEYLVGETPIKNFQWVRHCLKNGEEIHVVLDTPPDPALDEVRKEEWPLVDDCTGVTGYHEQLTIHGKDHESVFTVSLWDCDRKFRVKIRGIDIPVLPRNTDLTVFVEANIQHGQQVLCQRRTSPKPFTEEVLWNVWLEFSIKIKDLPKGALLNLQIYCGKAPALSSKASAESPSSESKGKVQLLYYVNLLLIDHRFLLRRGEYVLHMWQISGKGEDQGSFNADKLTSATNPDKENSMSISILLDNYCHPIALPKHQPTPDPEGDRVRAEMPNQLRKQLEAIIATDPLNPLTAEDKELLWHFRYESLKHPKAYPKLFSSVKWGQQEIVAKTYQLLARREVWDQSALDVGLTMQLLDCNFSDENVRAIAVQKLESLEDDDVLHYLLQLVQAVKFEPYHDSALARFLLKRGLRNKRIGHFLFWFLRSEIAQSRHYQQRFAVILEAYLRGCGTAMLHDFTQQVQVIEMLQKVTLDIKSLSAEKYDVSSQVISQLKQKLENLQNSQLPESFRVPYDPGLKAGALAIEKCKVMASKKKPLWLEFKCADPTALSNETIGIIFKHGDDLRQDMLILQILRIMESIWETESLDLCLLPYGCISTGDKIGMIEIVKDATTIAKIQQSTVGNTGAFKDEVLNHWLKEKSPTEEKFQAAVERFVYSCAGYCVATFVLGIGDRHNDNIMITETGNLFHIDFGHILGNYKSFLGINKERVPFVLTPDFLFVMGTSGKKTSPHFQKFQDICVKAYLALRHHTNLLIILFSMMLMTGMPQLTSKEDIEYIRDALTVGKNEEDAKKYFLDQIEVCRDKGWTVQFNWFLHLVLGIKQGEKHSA
# PIM1 (human), sequence (P11309 whole entry, looked up): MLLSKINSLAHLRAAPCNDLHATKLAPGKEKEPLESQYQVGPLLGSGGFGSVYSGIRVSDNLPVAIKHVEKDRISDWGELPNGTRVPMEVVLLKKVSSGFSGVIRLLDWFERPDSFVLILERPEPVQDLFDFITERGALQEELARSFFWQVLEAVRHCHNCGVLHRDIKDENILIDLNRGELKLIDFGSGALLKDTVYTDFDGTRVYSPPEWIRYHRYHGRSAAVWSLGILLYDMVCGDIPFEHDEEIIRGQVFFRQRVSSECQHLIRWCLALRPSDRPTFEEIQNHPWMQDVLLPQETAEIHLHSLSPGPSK
# CSNK2A2 (human), sequence (P19784 whole entry, looked up): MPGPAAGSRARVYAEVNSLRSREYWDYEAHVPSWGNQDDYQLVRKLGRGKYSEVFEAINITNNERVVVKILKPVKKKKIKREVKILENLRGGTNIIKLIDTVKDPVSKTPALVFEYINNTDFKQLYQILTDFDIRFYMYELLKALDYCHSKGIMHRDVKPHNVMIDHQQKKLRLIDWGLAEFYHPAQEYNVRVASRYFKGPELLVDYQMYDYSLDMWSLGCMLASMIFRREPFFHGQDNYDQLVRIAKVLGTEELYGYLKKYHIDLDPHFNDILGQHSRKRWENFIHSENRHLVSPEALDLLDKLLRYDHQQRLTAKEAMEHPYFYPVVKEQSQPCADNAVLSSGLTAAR
smiles,measurement,setting,value
O=C1NC(=O)/C(=C/c2c[nH]c(=O)c(-c3ccc(N4CCNCC4)nc3)c2)S1,"kinase still bound, per cent of control",[1],31%
same,"kinase still bound, per cent of control",[2],93%
same,"kinase still bound, per cent of control",[3],10%
same,"kinase still bound, per cent of control",[4],4%
same,"kinase still bound, per cent of control",[5],13%
same,"kinase still bound, per cent of control",[6],42%
same,"kinase still bound, per cent of control",[7],60%
same,pKd,[8],6.62
same,"kinase still bound, per cent of control",[8],0.3%
same,"kinase still bound, per cent of control",[9],57%
same,pKd,[10],8.21
same,"kinase still bound, per cent of control",[10],0%
same,pKd,[11],7.43
same,"kinase still bound, per cent of control",[11],0.95%
same,"kinase still bound, per cent of control",[12],72%
same,"kinase still bound, per cent of control",[13],100%
same,"kinase still bound, per cent of control",[14],18%
same,"kinase still bound, per cent of control",[15],1.2%
same,"kinase still bound, per cent of control",[16],80%
same,pKd,[17],8.02
same,"kinase still bound, per cent of control",[17],0.35%
same,"kinase still bound, per cent of control",[18],6%
same,"kinase still bound, per cent of control",[19],28%
same,"kinase still bound, per cent of control",[20],59%
same,"kinase still bound, per cent of control",[21],1%
same,"kinase still bound, per cent of control",[22],1.1%
same,"kinase still bound, per cent of control",[23],11%
same,"kinase still bound, per cent of control",[24],4.8%
same,"kinase still bound, per cent of control",[25],2.7%
same,"kinase still bound, per cent of control",[26],20%
same,"kinase still bound, per cent of control",[27],3.5%
same,"kinase still bound, per cent of control",[28],76%
same,"kinase still bound, per cent of control",[29],70%
same,"kinase still bound, per cent of control",[30],0.3%
same,"kinase still bound, per cent of control",[31],90%
same,"kinase still bound, per cent of control",[32],13%
same,"kinase still bound, per cent of control",[33],3.2%
same,"kinase still bound, per cent of control",[34],92%
same,"kinase still bound, per cent of control",[35],34%
same,"kinase still bound, per cent of control",[36],2.6%
same,"kinase still bound, per cent of control",[37],99%
same,"kinase still bound, per cent of control",[38],4.9%
same,"kinase still bound, per cent of control",[39],8.6%
same,"kinase still bound, per cent of control",[40],11%
same,"kinase still bound, per cent of control",[41],8.2%
same,"kinase still bound, per cent of control",[42],3.2%
N=C1NC(=O)/C(=C/c2ccc(-c3ccc(C(N)=O)cc3O)o2)S1,"kinase still bound, per cent of control",[1],33%
same,"kinase still bound, per cent of control",[4],32%
same,"kinase still bound, per cent of control",[8],0.55%
same,"kinase still bound, per cent of control",[10],6.7%
same,"kinase still bound, per cent of control",[11],3%
same,"kinase still bound, per cent of control",[13],31%
same,"kinase still bound, per cent of control",[14],9%
same,"kinase still bound, per cent of control",[16],13%
same,"kinase still bound, per cent of control",[17],9.7%
same,"kinase still bound, per cent of control",[21],25%
same,"kinase still bound, per cent of control",[27],0.35%
same,"kinase still bound, per cent of control",[30],2.6%
same,"kinase still bound, per cent of control",[31],8.8%
same,"kinase still bound, per cent of control",[33],6.6%
same,"kinase still bound, per cent of control",[36],16%
same,"kinase still bound, per cent of control",[39],13%
same,"kinase still bound, per cent of control",[42],0.75%
N=C1NC(=O)/C(=C/c2ccc(-c3ccc(F)cc3O)o2)S1,"kinase still bound, per cent of control",[1],22%
same,"kinase still bound, per cent of control",[4],26%
same,"kinase still bound, per cent of control",[6],24%
same,"kinase still bound, per cent of control",[8],1.3%
same,"kinase still bound, per cent of control",[10],15%
same,"kinase still bound, per cent of control",[11],3.8%
same,"kinase still bound, per cent of control",[13],14%
same,"kinase still bound, per cent of control",[14],5%
same,"kinase still bound, per cent of control",[16],15%
same,"kinase still bound, per cent of control",[17],8.3%
same,"kinase still bound, per cent of control",[20],24%
same,"kinase still bound, per cent of control",[21],8.6%
same,"kinase still bound, per cent of control",[24],12%
same,"kinase still bound, per cent of control",[27],0.15%
same,"kinase still bound, per cent of control",[30],0%
same,"kinase still bound, per cent of control",[31],4.6%
same,"kinase still bound, per cent of control",[32],24%
same,"kinase still bound, per cent of control",[33],7.6%
same,"kinase still bound, per cent of control",[39],0.2%
same,"kinase still bound, per cent of control",[41],32%
same,"kinase still bound, per cent of control",[42],1.8%
